Patent US20260262643A1, “HERBICIDAL BENZOXAZINES” (FMC CORPORATION, priority 2022, published 2026)

Key:
[1] = system: soybean; assay: Test A postemergence; type: in vivo, Glycine max; conditions: postemergence, 10 days
Procedure, shortened: (§1)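 Loam/sand soil; pre-em directed soil spray at planting, post-em spray at 1–2 leaf (2–10 cm). Compound in non-phytotoxic solvent + surfactant. Greenhouse 10 d; visual injury vs untreated, 0 = no effect, 100 = complete control.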

[2] = system: pigweed, palmer; assay: Test A postemergence; type: in vivo, Amaranthus palmeri; conditions: postemergence, 10 days
Procedure, shortened: as §1

[3] = system: wheat; assay: Test A preemergence; type: in vivo, Triticum aestivum; conditions: visual injury after 10 days, 0 to 100 scale, 0 is no effect, 100 is complete control
Procedure, shortened: as §1

[4] = system: barnyardgrass; assay: Test A preemergence; type: in vivo, Echinochloa crusgalli; conditions: visual injury after 10 days, 0 to 100 scale, 0 is no effect, 100 is complete control
Source text: (§2) Seeds of plant species selected from barnyardgrass (Echinochloa crusgalli), blackgrass (Alopecurus myosuroides), corn (Zea mays), foxtail, giant (giant foxtail, Setaria faberi), goosegrass (Eleusine indica), kochia (Bassia scoparia), oat, wild (wild oat, Avena fatua), pigweed, palmer (palmer amaranth, palmer pigweed, Amaranthus palmeri), Pigweed, Redroot (redroot pigweed, Amaranthus retroflexus), ragweed (common ragweed, Ambrosia artemisiifolia), ryegrass, Italian (italian ryegrass, Lolium multiflorum), soybean (Glycine max), and wheat (Triticum aestivum) were planted into a blend of loam soil and sand and treated preemergence with a directed soil spray using test chemicals formulated in a non-phytotoxic solvent mixture which included a surfactant. At the same time, plants selected from these crops and weed species and also galium (catchweed bedstraw, Galium aparine) and horseweed (Erigeron canadensis) were planted in pots containing the same blend of loam soil and sand and treated with postemergence applications of test chemicals formulated in the same manner. Plants ranged in height from 2 to 10 cm and were in the one- to two-leaf stage for the postemergence treatment. Treated plants and untreated controls were maintained in a greenhouse for 10 days, after which time all treated plants were compared to untreated controls and visually evaluated for injury. Plant response ratings, summarized in Table A, are based on a 0 to 100 scale where 0 is no effect and 100 is complete control. A dash (-) response means no test result.

[5] = system: corn; assay: Test A postemergence; type: in vivo, Zea mays; conditions: postemergence, 10 days
Procedure, shortened: as §1

[6] = system: wheat; assay: Test A postemergence; type: in vivo, Triticum aestivum; conditions: postemergence, 10 days
Procedure, shortened: as §1

[7] = system: ragweed; assay: Test A postemergence; type: in vivo, Ambrosia artemisiifolia; conditions: postemergence, 10 days
Procedure, shortened: as §1

[8] = system: blackgrass; assay: Test A preemergence; type: in vivo, Alopecurus myosuroides; conditions: visual injury after 10 days, 0 to 100 scale, 0 is no effect, 100 is complete control
Procedure, shortened: as §1

[9] = system: barnyardgrass; assay: Test A postemergence; type: in vivo, Echinochloa crusgalli; conditions: postemergence, 10 days
Source text: as §2

[10] = system: oat, wild; assay: Test A postemergence; type: in vivo, Avena fatua; conditions: postemergence, 10 days
Procedure, shortened: as §1

[11] = system: blackgrass; assay: Test A postemergence; type: in vivo, Alopecurus myosuroides; conditions: postemergence, 10 days
Procedure, shortened: as §1

[12] = system: pigweed, palmer; assay: Test A preemergence; type: in vivo, Amaranthus palmeri; conditions: visual injury after 10 days, 0 to 100 scale, 0 is no effect, 100 is complete control
Procedure, shortened: as §1

[13] = system: foxtail, giant; assay: Test A preemergence; type: in vivo, Setaria faberi; conditions: visual injury after 10 days, 0 to 100 scale, 0 is no effect, 100 is complete control
Procedure, shortened: as §1

[14] = system: galium; assay: Test A postemergence; type: in vivo, Galium aparine; conditions: postemergence, 10 days
Procedure, shortened: as §1

[15] = system: foxtail, giant; assay: Test A postemergence; type: in vivo, Setaria faberi; conditions: postemergence, 10 days
Procedure, shortened: as §1

[16] = system: soybean; assay: Test A preemergence; type: in vivo, Glycine max; conditions: visual injury after 10 days, 0 to 100 scale, 0 is no effect, 100 is complete control
Procedure, shortened: as §1

[17] = system: kochia; assay: Test A preemergence; type: in vivo, Bassia scoparia; conditions: visual injury after 10 days, 0 to 100 scale, 0 is no effect, 100 is complete control
Procedure, shortened: as §1

[18] = system: ryegrass, Italian; assay: Test A preemergence; type: in vivo, Lolium multiflorum; conditions: visual injury after 10 days, 0 to 100 scale, 0 is no effect, 100 is complete control
Procedure, shortened: as §1

[19] = system: ryegrass, Italian; assay: Test A postemergence; type: in vivo, Lolium multiflorum; conditions: postemergence, 10 days
Procedure, shortened: as §1

[20] = system: corn; assay: Test A preemergence; type: in vivo, Zea mays; conditions: visual injury after 10 days, 0 to 100 scale, 0 is no effect, 100 is complete control
Procedure, shortened: as §1

[21] = system: horseweed; assay: Test A postemergence; type: in vivo, Erigeron canadensis; conditions: postemergence, 10 days
Procedure, shortened: as §1

[22] = system: kochia; assay: Test A postemergence; type: in vivo, Bassia scoparia; conditions: postemergence, 10 days
Procedure, shortened: as §1

[23] = system: ragweed; assay: Test A preemergence; type: in vivo, Ambrosia artemisiifolia; conditions: visual injury after 10 days, 0 to 100 scale, 0 is no effect, 100 is complete control
Procedure, shortened: as §1

[24] = system: oat, wild; assay: Test A preemergence; type: in vivo, Avena fatua; conditions: visual injury after 10 days, 0 to 100 scale, 0 is no effect, 100 is complete control
Procedure, shortened: as §1

[25] = 125 g ai/ha, 0 to 100 scale, 0 no effect, 100 complete control
[26] = 500 g ai/ha, visual injury, 0 to 100 scale (0 no effect, 100 complete control)

Compound: Cc1cccc2c1O[C@@H](C)CN2C(=O)c1cccc(-n2cnc(COC(C)C)n2)c1 [Compound 135]
- Soybean plant response rating [1, 25]: 90
- Plant response rating, Soybean [1, 26]: 100
- Pigweed, Palmer plant response rating [2, 25]: 10
- Plant response rating, Pigweed, Palmer [2, 26]: 20
- Plant response rating, Wheat ([3]; 125 g ai/ha): 0
- Plant response rating, Wheat ([3]; 500 g ai/ha): 30
- Plant response rating, Barnyardgrass ([4]; 125 g ai/ha): 30
- Plant response rating, Barnyardgrass ([4]; 500 g ai/ha): 70
- Corn plant response rating [5, 25]: 10
- Plant response rating, Corn [5, 26]: 60
- Wheat plant response rating [6, 25]: 10
- Plant response rating, Wheat [6, 26]: 50
- Ragweed plant response rating [7, 25]: 0
- Plant response rating, Ragweed [7, 26]: 30
- Plant response rating, Blackgrass ([8]; 125 g ai/ha): 60
- Plant response rating, Blackgrass ([8]; 500 g ai/ha): 80
- Barnyardgrass plant response rating [9, 25]: 0
- Plant response rating, Barnyardgrass [9, 26]: 10
- Oat, Wild plant response rating [10, 25]: 0
- Plant response rating, Oat, Wild [10, 26]: 20
- Blackgrass plant response rating [11, 25]: 0
- Plant response rating, Blackgrass [11, 26]: 70
- Plant response rating, Pigweed, Palmer ([12]; 125 g ai/ha): 10
- Plant response rating, Pigweed, Palmer ([12]; 500 g ai/ha): 30
- Plant response rating, Foxtail, Giant ([13]; 125 g ai/ha): 10
- Plant response rating, Foxtail, Giant ([13]; 500 g ai/ha): 100
- Galium plant response rating [14, 25]: 50
- Plant response rating, Galium [14, 26]: 80
- Foxtail, Giant plant response rating [15, 25]: 10
- Plant response rating, Foxtail, Giant [15, 26]: 90
- Plant response rating, Soybean ([16]; 125 g ai/ha): 20
- Plant response rating, Soybean ([16]; 500 g ai/ha): 30
- Plant response rating, Kochia ([17]; 125 g ai/ha): 0
- Plant response rating, Kochia ([17]; 500 g ai/ha): 0
- Plant response rating, Ryegrass, Italian ([18]; 125 g ai/ha): 60
- Plant response rating, Ryegrass, Italian ([18]; 500 g ai/ha): 90
- Ryegrass, Italian plant response rating [19, 25]: 0
- Plant response rating, Ryegrass, Italian [19, 26]: 50
- Plant response rating, Corn ([20]; 125 g ai/ha): 0
- Plant response rating, Corn ([20]; 500 g ai/ha): 10
- Horseweed plant response rating [21, 25]: 0
- Plant response rating, Horseweed [21, 26]: 0
- Kochia plant response rating [22, 25]: 0
- Plant response rating, Kochia [22, 26]: 50
- Plant response rating, Ragweed ([23]; 125 g ai/ha): 0
- Plant response rating, Ragweed ([23]; 500 g ai/ha): 0
- Plant response rating, Oat, Wild ([24]; 125 g ai/ha): 60
- Plant response rating, Oat, Wild ([24]; 500 g ai/ha): 90
